Source: BindingDB's records for doi:10.1186/1471-2091-12-59 (Ghent University, 2011)

Assays:
Heme-binding protein A [1] = target: Heme-binding protein A (Actinobacillus pleuropneumoniae serovar 9 str. CVJ13261, UniProt A3N3U8); assay: Isothermal Titration Calorimetry (ITC); conditions: pH 7.4; 37 °C
Protocol: (§1) Purified test proteins were dialyzed overnight against 10 mM Tris-HCl, pH 7.4, at 4°C. The resultant dialysis buffer was then used to dissolve the test compounds. Titrations were always preceded by an initial injection of 3 μL and were carried out using 10-μL injections applied 300 s apart. The sample was stirred at a speed of 400 rpm throughout.

Heme-binding protein A [2] = target: T1, Heme-binding protein A (Glaesserella parasuis, UniProt B8F653); assay: Isothermal Titration Calorimetry (ITC); conditions: pH 7.4; 37 °C
T1 sequence (B8F653 whole entry): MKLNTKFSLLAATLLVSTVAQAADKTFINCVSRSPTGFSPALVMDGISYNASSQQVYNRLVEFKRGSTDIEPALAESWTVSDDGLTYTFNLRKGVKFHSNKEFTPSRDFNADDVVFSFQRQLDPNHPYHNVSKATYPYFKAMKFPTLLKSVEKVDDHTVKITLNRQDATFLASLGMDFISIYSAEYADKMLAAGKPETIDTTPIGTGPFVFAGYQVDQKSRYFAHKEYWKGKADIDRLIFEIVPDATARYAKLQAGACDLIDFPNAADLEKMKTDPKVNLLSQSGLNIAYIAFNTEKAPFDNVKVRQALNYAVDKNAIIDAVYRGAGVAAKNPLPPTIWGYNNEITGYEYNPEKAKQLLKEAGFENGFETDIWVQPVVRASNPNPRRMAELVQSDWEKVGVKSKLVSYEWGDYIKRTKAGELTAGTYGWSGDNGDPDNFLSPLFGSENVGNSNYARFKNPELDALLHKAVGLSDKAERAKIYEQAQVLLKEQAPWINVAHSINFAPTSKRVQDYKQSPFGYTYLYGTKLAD
Protocol: as §1

Heme-binding protein A (Actinobacillus pleuropneumoniae serovar 9 str. CVJ13261, UniProt A3N3U8), sequence (A3N3U8 whole entry): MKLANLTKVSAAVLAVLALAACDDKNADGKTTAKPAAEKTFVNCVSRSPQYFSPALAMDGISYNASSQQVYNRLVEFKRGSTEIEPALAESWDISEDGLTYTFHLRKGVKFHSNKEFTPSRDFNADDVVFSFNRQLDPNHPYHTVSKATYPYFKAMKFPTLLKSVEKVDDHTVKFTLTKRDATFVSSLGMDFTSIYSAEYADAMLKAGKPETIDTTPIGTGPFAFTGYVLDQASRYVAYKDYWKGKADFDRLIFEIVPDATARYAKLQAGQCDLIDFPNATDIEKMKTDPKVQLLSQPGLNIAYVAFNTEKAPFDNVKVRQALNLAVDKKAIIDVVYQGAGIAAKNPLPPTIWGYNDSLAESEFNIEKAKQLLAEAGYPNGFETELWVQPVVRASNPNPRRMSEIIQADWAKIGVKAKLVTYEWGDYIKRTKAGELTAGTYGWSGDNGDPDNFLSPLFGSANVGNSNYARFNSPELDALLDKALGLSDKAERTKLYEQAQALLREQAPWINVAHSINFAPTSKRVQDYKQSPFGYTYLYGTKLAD

Compound | Kd (Heme-binding protein A [1]) [nM] | Kd (Heme-binding protein A [2]) [nM]
CSC[C@H](NC(=O)CC[C@H](N)C(=O)O)C(=O)NCC(=O)O [S-methylglutathione] | 1170 | 900
N[C@@H](CCC(=O)N[C@@H](CS)C(=O)NCC(=O)O)C(=O)O [GLUTATHIONE] | – | 1900
